Assay results taken from patent publication US20090030037A1, “Sustained Release Formulation and Dosing Schedules of Leukotriene Synthesis Inhibitor for Human Therapy” (deCODE Genetics ehf., priority 2005, published 2009).

Legend:
Assay type in all cases: in vivo, human
MPO = assay: Study DG-031-203: plasma MPO; settings: 250 mg TID, 6 hours after intake
Experimental: The study also collected information on the dose-related effect of DG-031 on capacity for LTB4 production (ex vivo), plasma MPO, and serum-CRP. […] The pattern observed supported a concentration dependent pharmacologic effect of DG-031 on capacity for LTB4 production measured ex vivo. The effects on LTB4 production amounted to a 30% (p=0.016) and 25% (p=0.094) reduction with the 375 mg BID and 250 mg TID doses, respectively.

[1] = Steady-state DG-031 plasma concentrations and half-life, studies DG-031-201 and DG-031-203; settings: humans
From the text: Maintaining the minimum concentration using TIED dosing requires only about 70% of the drug that is required for a BID schedule. TID dosing is a more efficient process in terms of drug utilization when the goal is maintaining concentrations above a minimum threshold. It has the added advantage of reducing a patient's total exposure to the drug.

LTB4 = assay: Study DG-031-204: ionomycin-stimulated LTB4 in whole blood; settings: for Stimulated LTB4 (% change from baseline, whole blood, WBC corrected, 15 minute): after 4 weeks
Experimental: Briefly, the cell pellets from the Ficoll gradient were harvested and the red blood cells were subsequently lysed in 0.165 M NH4CL for 10 minutes on ice. After washing with PBS, neutrophils were counted and plated at 2×10^6 cells/ml in 4 ml cultures of 15% Fetal calf serum (FCS) (GIBCO BRL) in RPMI-1640 (GIBCO BRL). The cells were then stimulated with maximum effective concentration of ionomycin (1 μM). At 0, 15, 30, 60 minutes post ionomycin addition 600 μl of culture medium was aspirated and stored at −80° C. for the measurement of LTB4 release as described below. The cells were maintained at 37° C. in a humidified atmosphere of 5% CO2/95% air. All samples were treated with indomethasine (1 μM) to block the cyclooxygenase enzyme. The experimental conditions are described above.
LTB4 Immunoassay Assay Design was used to quantitate LTB4 concentration in supernatant from cultured ionomycin stimulated neutrophils. The assay used is based on the competitive binding technique in which LTB4 present in the testing samples (200 μl) competes with a fixed amount of alkaline phosphatase-labelled LTB4 for sites on a rabbit polyclonal antibody. During the incubation, the polyclonal Ab becomes bound to a goat anti-rabbit Ab coated onto the microplates. Following a wash to remove excess conjugate and unbound sample, a substrate solution is added to the wells to determine the bound enzyme activity. The color development is stopped and the absorbance is read at 405 nm. The intensity of the color is inversely proportional to the concentration of LTB4 in the sample. Each LTB4 measurement using the LTB4 Immunoassay, was done in duplicate. […]
The biomarkers were analyzed as described in Example 1. […]
Serum was collected weekly for determination of LTB4 concentration in response to the treatment with DG-031. […] Stimulated LTB4 effects measured in study DG-031-204, as shown in the raw data set out in Table 12, appear consistent with projections from the exposure-response analysis based on data from studies DG-031-201 and DG-031-203. […]

Prostaglandin F = assay: Study DG-031-204: Prostaglandin F (PGF); settings: after 4 weeks of treatment
Experimental: An additional single site, open label study was carried out to obtain biomarker and safety data on additional DG-031 doses (i.e., 1000 mg and 1500 mg). This study examined the safety, tolerability and dose-related effects of DG-031 on inflammatory biomarkers including: LTB4, hsCRP, and MPO. A total of 119 patients with a prior history of CAD and MI were randomized to receive either 1000 mg DG-031 (500 mg BID) or 1500 mg DG-031 (500 mg TID) daily for 4-6 weeks. Treatment with DG-031 in addition to the subject's standard care, medication, and treatment, was prescribed by the patient's cardiologist. A majority of the subjects received statin therapy before, during and after the study. Follow-up assessments were performed 2 weeks after the end of study drug administration.
The biomarkers were analyzed as described in Example 1. Statistical analysis of the data was carried out using a one-sample t-test on change from baseline with a two-sided nominal significance level of 0.050. Biomarker concentrations were log-transformed and a simple last observation carried forward (LOCF) scheme was used to impute missing observations.
Prostaglandin F (PGF) was measured at 2-week intervals.

## O=C(O)[C@@H](c1ccc(OCc2ccc3ccccc3n2)cc1)C1CCCC1 [DG-031, (R)-(+)-alpha-cyclopentyl-4-(2-quinolinylmethoxy)-Benzeneacetic acid]
MPO
  Reduction of plasma MPO levels: 37%
[1]
  Dominant half-life: 2.5 to 3 h
LTB4; 500 mg BID
  Reduction of LTB4 levels, ionophore-stimulation assay: 35%
LTB4; 1000 mg (500 mg BID)
  Stimulated LTB4 (% change from baseline, whole blood, WBC corrected, 15 minute): −44%
LTB4; 1500 mg (500 mg TID)
  Stimulated LTB4 (% change from baseline, whole blood, WBC corrected, 15 minute): −28%
Prostaglandin F
  Trends in PGF: No significant trends
